{"source": "ChEMBL document CHEMBL5696439", "about": "(Cancer Res, 2010)", "key": {"[1]": {"target": "ALK tyrosine kinase receptor (Homo sapiens) (UniProt Q9UM73)", "test": "Inhibition of recombinant human GST-tagged ALK (1058 to 1620 residues) expressed in insect cells at 2 uM using Tyr 01 as substrate measured after 1 hr by Z'-LYTE assay relative to control", "settings": "Insect cell"}, "[2]": {"target": "Aurora kinase C (Homo sapiens) (UniProt Q9UQB9)", "sequence (Q9UQB9 whole entry)": "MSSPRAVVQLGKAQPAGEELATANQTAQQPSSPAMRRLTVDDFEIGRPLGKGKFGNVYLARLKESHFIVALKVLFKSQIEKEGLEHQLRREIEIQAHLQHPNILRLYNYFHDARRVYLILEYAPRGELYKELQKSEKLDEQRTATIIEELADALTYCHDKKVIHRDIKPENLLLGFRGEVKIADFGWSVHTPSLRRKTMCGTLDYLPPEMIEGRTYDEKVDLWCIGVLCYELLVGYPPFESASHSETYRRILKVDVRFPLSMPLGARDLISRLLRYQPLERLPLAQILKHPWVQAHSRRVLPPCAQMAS", "test": "Inhibition of recombinant human full-length GST-tagged AURKC expressed in insect cells at 2 uM using Ser/Thr 19 as substrate measured after 1 hr by Z'-LYTE assay relative to control", "settings": "Insect cell"}, "[3]": {"test": "Inhibition of recombinant human full-length His-tagged CDK2/cyclin A expressed in insect cells at 2 uM using Ser/Thr 12 as substrate measured after 1 hr by Z'-LYTE assay relative to control", "settings": "Insect cell, condition cancer"}, "[4]": {"target": "Dual specificity protein kinase CLK1 (Homo sapiens) (UniProt P49759)", "sequence (P49759 whole entry, looked up, the tested form may be a part)": "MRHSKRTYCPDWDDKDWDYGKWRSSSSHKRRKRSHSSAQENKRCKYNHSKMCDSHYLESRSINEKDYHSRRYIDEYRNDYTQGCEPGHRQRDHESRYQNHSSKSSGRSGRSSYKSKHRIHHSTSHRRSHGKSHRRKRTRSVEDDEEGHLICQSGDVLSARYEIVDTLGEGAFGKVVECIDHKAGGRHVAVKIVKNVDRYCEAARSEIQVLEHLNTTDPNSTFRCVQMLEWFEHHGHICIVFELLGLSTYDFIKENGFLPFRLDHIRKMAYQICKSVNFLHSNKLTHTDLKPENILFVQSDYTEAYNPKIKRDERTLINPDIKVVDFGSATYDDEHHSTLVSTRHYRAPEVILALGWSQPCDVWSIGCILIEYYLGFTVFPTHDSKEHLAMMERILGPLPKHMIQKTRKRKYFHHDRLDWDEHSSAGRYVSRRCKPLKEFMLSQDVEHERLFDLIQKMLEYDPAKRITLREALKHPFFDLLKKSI", "test": "Inhibition of recombinant human GST-tagged CLK1 (129-484 residues) expressed in E. coli at 2 uM using Ser/Thr 09 as substrate measured after 1 hr by Z'-LYTE assay relative to control"}, "[5]": {"target": "Casein kinase I isoform alpha (Homo sapiens) (UniProt P48729)", "test": "Inhibition of recombinant human full-length GST-tagged CSNK1A1 at 2 uM using Ser/Thr 11 as substrate measured after 1 hr by Z'-LYTE assay relative to control"}, "[6]": {"test_system": "Epidermal growth factor receptor (Homo sapiens), P00533 [T790M]", "test": "Inhibition of recombinant human GST-tagged EGFR T790M mutant (668-1210 residues) expressed in insect cells at 2 uM using Tyr 04 as substrate measured after 1 hr by Z'-LYTE assay relative to control", "settings": "Insect cell"}, "[7]": {"target": "Rhodopsin kinase GRK7 (Homo sapiens) (UniProt Q8WTQ7)", "sequence (Q8WTQ7 whole entry)": "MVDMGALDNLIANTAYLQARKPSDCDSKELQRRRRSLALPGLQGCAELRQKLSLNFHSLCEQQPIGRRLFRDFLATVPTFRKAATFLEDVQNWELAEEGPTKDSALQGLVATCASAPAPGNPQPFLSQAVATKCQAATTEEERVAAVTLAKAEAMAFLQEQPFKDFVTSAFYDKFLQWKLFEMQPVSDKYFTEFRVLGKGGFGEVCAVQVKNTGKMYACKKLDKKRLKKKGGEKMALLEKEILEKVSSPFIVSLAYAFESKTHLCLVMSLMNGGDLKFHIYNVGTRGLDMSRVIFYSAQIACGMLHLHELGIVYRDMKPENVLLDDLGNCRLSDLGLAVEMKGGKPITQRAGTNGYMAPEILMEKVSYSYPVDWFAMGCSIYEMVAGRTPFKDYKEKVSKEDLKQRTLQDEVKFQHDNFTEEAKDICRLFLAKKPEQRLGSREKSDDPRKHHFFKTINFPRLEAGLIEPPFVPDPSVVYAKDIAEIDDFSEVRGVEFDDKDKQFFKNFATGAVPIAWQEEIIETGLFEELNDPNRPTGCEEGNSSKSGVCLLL", "test": "Inhibition of recombinant human full-length GST-tagged GRK7 expressed in insect cells at 2 uM using Ser/Thr 16 as substrate measured after 1 hr by Z'-LYTE assay relative to control", "settings": "Insect cell"}, "[8]": {"target": "Tyrosine-protein kinase JAK2 (Homo sapiens) (UniProt O60674)", "test": "Inhibition of recombinant human GST-tagged JAK2 (809-1153 +9 residues) expressed in insect cells at 2 uM using Tyr 06 as substrate measured after 1 hr by Z'-LYTE assay relative to control", "settings": "Insect cell"}, "[9]": {"target": "Vascular endothelial growth factor receptor 2 (Homo sapiens) (UniProt P35968)", "test": "Inhibition of recombinant human His-tagged KDR (789-1356 residues) expressed in insect cells at 2 uM using […] as substrate measured after 1 hr by Z'-LYTE assay relative to control", "settings": "Insect cell"}, "[10]": {"target": "Mast/stem cell growth factor receptor Kit (Homo sapiens) (UniProt P10721)", "sequence (P10721 whole entry, the tested form may be a part)": "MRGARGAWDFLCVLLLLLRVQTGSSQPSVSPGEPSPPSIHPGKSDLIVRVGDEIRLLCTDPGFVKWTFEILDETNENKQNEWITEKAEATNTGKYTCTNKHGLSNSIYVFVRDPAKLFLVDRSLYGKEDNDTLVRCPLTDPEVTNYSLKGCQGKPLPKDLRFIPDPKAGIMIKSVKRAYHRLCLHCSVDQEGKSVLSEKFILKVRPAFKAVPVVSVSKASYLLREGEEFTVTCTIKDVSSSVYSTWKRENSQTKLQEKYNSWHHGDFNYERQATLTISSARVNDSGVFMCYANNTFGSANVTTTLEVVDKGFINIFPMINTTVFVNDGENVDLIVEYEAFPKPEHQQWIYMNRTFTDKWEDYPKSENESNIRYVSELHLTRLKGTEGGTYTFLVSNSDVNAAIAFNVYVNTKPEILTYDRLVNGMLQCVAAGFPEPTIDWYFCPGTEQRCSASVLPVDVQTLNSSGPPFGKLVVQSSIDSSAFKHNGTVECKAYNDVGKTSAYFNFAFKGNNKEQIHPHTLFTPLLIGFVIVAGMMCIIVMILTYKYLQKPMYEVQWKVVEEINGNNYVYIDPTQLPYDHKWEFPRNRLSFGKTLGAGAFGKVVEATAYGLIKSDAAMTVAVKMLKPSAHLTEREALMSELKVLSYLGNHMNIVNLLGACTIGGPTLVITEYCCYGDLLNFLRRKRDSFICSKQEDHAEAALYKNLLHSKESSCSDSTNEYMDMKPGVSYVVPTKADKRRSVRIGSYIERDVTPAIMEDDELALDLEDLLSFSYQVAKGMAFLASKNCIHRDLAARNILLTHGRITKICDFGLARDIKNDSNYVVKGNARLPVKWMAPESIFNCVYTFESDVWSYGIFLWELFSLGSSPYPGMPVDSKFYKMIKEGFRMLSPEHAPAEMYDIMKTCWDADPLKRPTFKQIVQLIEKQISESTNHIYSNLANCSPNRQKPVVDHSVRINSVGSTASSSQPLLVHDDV", "test": "Inhibition of recombinant human His-tagged KIT (544-976 residues) expressed in insect cells at 2 uM using […] as substrate measured after 1 hr by Z'-LYTE assay relative to control"}, "[11]": {"target": "Tyrosine-protein kinase Lyn (Homo sapiens) (UniProt P07948)", "test": "Inhibition of recombinant human full length GST-tagged LYN A expressed in baculovirus expression system at 2 uM using Tyr 02 as substrate measured after 1 hr by Z'-LYTE assay relative to control"}, "[12]": {"target": "Mitogen-activated protein kinase kinase kinase 8 (Homo sapiens) (UniProt P41279)", "test": "Inhibition of recombinant human GST-tagged MAP3K8 (30-397 residues) expressed in insect cells at 2 uM using Ser/Thr 03 as substrate measured after 1 hr by Z'-LYTE assay relative to control", "settings": "Insect cell"}, "[13]": {"target": "Protein kinase C gamma type (Homo sapiens) (UniProt P05129)", "test": "Inhibition of recombinant human full length GST-tagged PRKCG expressed in insect cells at 2 uM using Ser/Thr 07 as substrate measured after 1 hr by Z'-LYTE assay relative to control", "settings": "Insect cell"}, "[14]": {"target": "Ribosomal protein S6 kinase alpha-5 (Homo sapiens) (UniProt O75582)", "sequence (O75582 whole entry, looked up)": "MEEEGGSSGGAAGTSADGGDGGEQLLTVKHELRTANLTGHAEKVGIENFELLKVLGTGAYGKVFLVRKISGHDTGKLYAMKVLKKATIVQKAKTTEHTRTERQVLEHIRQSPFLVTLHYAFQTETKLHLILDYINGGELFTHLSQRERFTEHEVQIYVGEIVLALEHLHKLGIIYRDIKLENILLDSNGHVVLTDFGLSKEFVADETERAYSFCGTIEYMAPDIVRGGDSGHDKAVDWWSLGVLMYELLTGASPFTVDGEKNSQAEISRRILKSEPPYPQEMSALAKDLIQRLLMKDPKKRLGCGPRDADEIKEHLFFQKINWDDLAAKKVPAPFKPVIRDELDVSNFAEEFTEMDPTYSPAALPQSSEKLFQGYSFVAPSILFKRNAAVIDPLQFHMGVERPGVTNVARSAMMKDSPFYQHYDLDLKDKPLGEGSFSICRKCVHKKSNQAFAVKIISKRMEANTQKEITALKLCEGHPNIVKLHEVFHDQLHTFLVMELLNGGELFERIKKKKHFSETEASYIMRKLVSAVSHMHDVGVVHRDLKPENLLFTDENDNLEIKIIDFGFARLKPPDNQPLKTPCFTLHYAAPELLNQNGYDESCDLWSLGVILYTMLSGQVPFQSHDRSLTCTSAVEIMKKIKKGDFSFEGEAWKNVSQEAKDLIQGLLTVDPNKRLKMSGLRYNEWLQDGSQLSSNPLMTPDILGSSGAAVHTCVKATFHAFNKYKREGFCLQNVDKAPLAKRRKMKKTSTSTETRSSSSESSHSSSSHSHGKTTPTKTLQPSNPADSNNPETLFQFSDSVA", "test": "Inhibition of recombinant human full length GST-tagged RPS6KA5 expressed in insect cells at 2 uM using Ser/Thr 01 as substrate measured after 1 hr by Z'-LYTE assay relative to control", "settings": "Insect cell"}, "[15]": {"target": "SRSF protein kinase 1 (Homo sapiens) (UniProt Q96SB4)", "sequence (Q96SB4 whole entry)": "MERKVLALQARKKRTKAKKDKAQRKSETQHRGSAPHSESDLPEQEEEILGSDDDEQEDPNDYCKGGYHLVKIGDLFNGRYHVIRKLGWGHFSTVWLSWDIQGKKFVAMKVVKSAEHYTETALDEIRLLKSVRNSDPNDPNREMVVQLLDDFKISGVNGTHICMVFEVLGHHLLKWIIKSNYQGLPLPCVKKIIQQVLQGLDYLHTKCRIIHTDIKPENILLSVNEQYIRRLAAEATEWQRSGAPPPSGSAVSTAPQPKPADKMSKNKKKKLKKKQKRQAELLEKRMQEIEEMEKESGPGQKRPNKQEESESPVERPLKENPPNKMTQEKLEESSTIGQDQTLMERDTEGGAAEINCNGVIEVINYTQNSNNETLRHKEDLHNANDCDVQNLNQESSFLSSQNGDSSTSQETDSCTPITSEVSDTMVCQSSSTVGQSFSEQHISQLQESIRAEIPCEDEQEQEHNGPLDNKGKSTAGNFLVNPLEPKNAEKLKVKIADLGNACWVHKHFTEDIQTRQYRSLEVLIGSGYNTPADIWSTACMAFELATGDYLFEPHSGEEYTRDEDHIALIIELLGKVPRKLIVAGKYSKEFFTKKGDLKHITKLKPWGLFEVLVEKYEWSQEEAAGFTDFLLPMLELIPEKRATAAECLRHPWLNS", "test": "Inhibition of recombinant human full length His-tagged SRPK1 expressed in insect cells at 2 uM using Ser/Thr 18 as substrate measured after 1 hr by Z'-LYTE assay relative to control", "settings": "Insect cell"}, "786-0": {"test_system": "786-0", "test": "Antiproliferative activity against human 786-0 cells assessed as cell growth inhibition incubated for 24 hrs by MTS assay", "format": "functional, cell-based", "settings": "786-0, 24 h"}, "A549": {"test_system": "A549", "test": "Antiproliferative activity against human A549 cells assessed as cell growth inhibition at 10 micromol/L incubated for 3 days by MTS assay relative to control", "format": "functional", "settings": "A549, 72 h, dose 10 µmol/L, time 3 day"}, "PC3MM2": {"test_system": "PC3MM2", "test": "Induction of apoptosis in human PC3MM2 cells assessed as increase in G1 phase at 1 micromol/L incubated for 24 hrs by FACS analysis", "format": "functional, cell-based", "settings": "dose 1.0 µmol/L"}, "U-87 MG [16]": {"test_system": "U-87 MG", "test": "Induction of apoptosis in human U-87MG cells assessed as increase in G1 phase at 1 micromol/L incubated for 24 hrs by FACS analysis", "format": "functional, cell-based", "settings": "U-87MG ATCC, dose 1.0 µmol/L"}, "MDA-MB-361 [17]": {"test_system": "MDA-MB-361", "test": "Antitumor activity against human MDA-MB-361 cells assessed as block the hypoxia-induced lactate production in low oxygen at 0.3 micromol/L incubated for 24 hrs", "format": "functional, cell-based", "settings": "dose 0.3 µmol/L"}, "HCT-116": {"test_system": "HCT-116", "test": "Antitumor activity against human HCT-116 cells xenografted in female nude mouse model assessed as suppression in P-S6K at T389 level at 50 mg/kg, iv administered once a week and measured at least 8 hrs by immunoblot analysis", "format": "functional, organism-based"}, "MDA-MB-361 [18]": {"test_system": "MDA-MB-361", "test": "Antitumor activity against human MDA-MB-361 cells xenografted in female nude mouse model assessed as suppression in P-AKT at S473 level at 50 mg/kg, po qd administered as 5 days on/2 days off regimen for 4 cycles by immunoblot analysis", "format": "functional, organism-based", "settings": "time 28.0 day"}, "U-87 MG [19]": {"test_system": "U-87 MG", "test": "Antitumor activity against PTEN-null human U-87MG cells xenografted in female nude mouse model assessed as tumor growth delay at 25 to 50 mg/kg, po qd administered as 5 days on/2 days off regimen for 4 cycles", "format": "functional, organism-based", "settings": "U-87MG ATCC, dose 25-50 mg/kg, time 28.0 day"}, "NCI-H1975": {"test_system": "NCI-H1975", "test": "Antitumor activity against human NCI-H1975 cells xenografted in female nude mouse model assessed as survival at 10 mg/kg, po qd administered as 5 days on/2 days off regimen for 4 cycles", "format": "functional, organism-based", "settings": "time 28.0 day"}, "A498": {"test_system": "A498", "test": "cells", "settings": "Homo sapiens, A498, 48 h", "description": "Antiproliferative activity against human A498 cells assessed as cell growth inhibition incubated for 2 days by MTS assay"}, "[20]": {"target": "3-phosphoinositide-dependent protein kinase 1 (Homo sapiens) (UniProt O15530)", "sequence (O15530 whole entry, looked up)": "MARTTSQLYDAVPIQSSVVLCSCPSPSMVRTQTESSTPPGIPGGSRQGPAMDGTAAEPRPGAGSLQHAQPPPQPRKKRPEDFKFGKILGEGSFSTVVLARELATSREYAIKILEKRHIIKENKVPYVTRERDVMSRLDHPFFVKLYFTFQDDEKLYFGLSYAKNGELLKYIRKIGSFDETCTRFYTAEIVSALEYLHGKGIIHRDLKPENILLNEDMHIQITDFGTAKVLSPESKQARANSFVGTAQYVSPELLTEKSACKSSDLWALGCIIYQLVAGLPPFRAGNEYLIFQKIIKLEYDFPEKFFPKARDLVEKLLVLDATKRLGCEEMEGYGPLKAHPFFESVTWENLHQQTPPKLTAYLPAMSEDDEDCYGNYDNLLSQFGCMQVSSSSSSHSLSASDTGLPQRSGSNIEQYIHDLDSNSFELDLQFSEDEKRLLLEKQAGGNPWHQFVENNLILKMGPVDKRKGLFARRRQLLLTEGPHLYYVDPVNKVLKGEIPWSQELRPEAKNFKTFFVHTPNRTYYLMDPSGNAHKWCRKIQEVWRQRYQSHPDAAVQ", "test": "Inhibition of recombinant human full length His-tagged PDK1 expressed in baculovirus expression system at 2 uM using Ser/Thr 06 as substrate measured after 1 hr by Z'-LYTE assay relative to control"}}, "note": "Calls of active or inactive are those of the source. The rule behind the calls is not given here.", "data": [{"compound": "CNC(=O)Nc1ccc(-c2nc(N3CC4CCC(C3)O4)c3cnn(C4CCC5(CC4)OCCO5)c3n2)cc1", "values": [{"measurement": "inhibition", "setting": "[1]", "result": 0, "unit": "%"}, {"measurement": "inhibition", "setting": "[2]", "result": 4, "unit": "%"}, {"measurement": "inhibition at 2 µM", "setting": "[3]", "result": 0, "unit": "%"}, {"measurement": "inhibition", "setting": "[4]", "result": -3, "unit": "%"}, {"measurement": "inhibition", "setting": "[5]", "result": 2, "unit": "%"}, {"measurement": "inhibition", "setting": "[6]", "result": 2, "unit": "%"}, {"measurement": "inhibition", "setting": "[7]", "result": 7, "unit": "%"}, {"measurement": "inhibition", "setting": "[8]", "result": -3, "unit": "%"}, {"measurement": "inhibition", "setting": "[9]", "result": 7, "unit": "%"}, {"measurement": "inhibition", "setting": "[10]", "result": 10, "unit": "%"}, {"measurement": "inhibition", "setting": "[11]", "result": 7, "unit": "%"}, {"measurement": "inhibition", "setting": "[12]", "result": 1, "unit": "%"}, {"measurement": "inhibition", "setting": "[13]", "result": 11, "unit": "%"}, {"measurement": "inhibition", "setting": "[14]", "result": 1, "unit": "%"}, {"measurement": "inhibition", "setting": "[15]", "result": 2, "unit": "%"}, {"measurement": "IC50", "setting": "786-0", "result": 0.12, "unit": "µM"}, {"measurement": "inhibition at 10 µM", "setting": "A549", "result": 100, "unit": "%"}, {"measurement": "Activity", "setting": "PC3MM2", "result": "Active"}, {"measurement": "Activity", "setting": "U-87 MG [16]", "result": "Active"}, {"measurement": "Activity", "setting": "MDA-MB-361 [17]", "result": "Active"}, {"measurement": "Activity", "setting": "HCT-116", "result": "Active"}, {"measurement": "Activity", "setting": "MDA-MB-361 [18]", "result": "Active"}, {"measurement": "Activity", "setting": "U-87 MG [19]", "result": "Active"}, {"measurement": "Activity", "setting": "NCI-H1975", "result": "Active"}, {"measurement": "IC50", "setting": "A498", "result": 2.5, "unit": "µM"}, {"measurement": "inhibition", "setting": "[20]", "result": 3, "unit": "%"}]}]}
